Measured values: patent US6080771A, “DC107 derivatives” (Kyowa Hakko Kogyo Co., Ltd., priority 1996, dated 2000)
In brackets after ≈: the same amount, converted by molar mass.

Key:
[1] = test system: Escherichia coli ATCC 26; test: Antimicrobial activity, agar dilution method (MIC), EC; assay type: cell-based; conditions: ATCC26, agar dilution, pH 7, read-out: MIC, EC
From the text: | EC: Escherichia coli ATCC 26

[2] = test system: Enterococcus hirae ATCC 10541; conditions: pH 7
Protocol: Antimicrobial activity was determined by the agar dilution method using a culture medium (pH 7) prepared by dissolving 3 g of Bacto-Tryptone (manufactured by Difco, Co.), 3 g of meat extract, 1 g of yeast extract, 1 g of glucose, and 16 g of agar in 1 l of water.
EH: Enterococcus hirae ATCC 10541

[3] = test system: Sarcoma 180 mouse solid tumor; test: Antitumor activity against Sarcoma 180 mouse solid tumor; assay type: in vivo, male ddY mice; conditions: Sarcoma-180, iv, 168 h, single i.v., tumor volume on day 7 from transplant, read-out: T/C (tumor volume ratio treated/control)
Protocol: To a ddY mouse were intraperitoneally transplanted 5×10^6 sarcoma 180 cells. On the seventh day from the transplant, the cells were collected from the ascites, washed once with sterilized physiological saline, and then diluted with sterilized physiological saline to prepare a cell suspension having a concentration of 5×10^7 cells/mL. This suspension was transplanted in an amount of 0.01 mL to a subcutaneous part of the right axilla of each of male ddY mice each weighing 20±1 g.
A test compound was dissolved in physiological saline containing polyoxyethylene sorbitan monolaurate. At 24 hours after the tumor transplant, 0.2 mL of the solution was intravenously administered to the tail of each of a group of five mice.

[4] = test system: Staphylococcus aureus ATCC 6538P; test: Antimicrobial activity, agar dilution method (MIC), SA; assay type: cell-based; conditions: ATCC6538P, agar dilution, pH 7, read-out: MIC, SA
From the text: | SA: Staphylococcus aureus ATCC 6538P

[5] = test system: Bacillus substilis NO. 10707; test: Antimicrobial activity, agar dilution method (MIC), BS; assay type: cell-based; conditions: NO.10707, agar dilution, pH 7, read-out: MIC, BS
From the text: | BS: Bacillus substilis NO. 10707

[6] = test system: Klebisiella pneumoniae ATCC 10031; test: Antimicrobial activity, agar dilution method (MIC), KP; assay type: cell-based; conditions: agar dilution, pH 7; read-out: MIC, KP
From the text: | KP: Klebisiella pneumoniae ATCC 10031

[7] = test system: HeLa S3 cells; test: HeLa S3 cell growth inhibition test (Neutral Red); assay type: cell-based; conditions: Homo sapiens, HeLa S3; 72 hours, 37° C.; read-out: HeLa S3 Cell Growth Inhibition Activity, IC50
Protocol: In each well of a 96-well microtiter plate was placed 0.1 mL of HeLa S3 cells having a concentration of 8×10^3 cells/mL and prepared in an MEM culture medium containing 10% fetal bovine serum and 2 mM glutamine. After the cells were incubated overnight at 37° C. in a carbon dioxide incubator, a test compound suitably diluted with a medium was added to the wells in an amount of 0.05 mL for each well. The cells were incubated at 37° C. for 72 hours in a carbon dioxide incubator. After the culture supernatant was removed, 0.1 mL of a culture medium containing 0.02% Neutral Red was added to each well. The cells were then incubated at 37° C. for 1 hour in a carbon dioxide incubator to dye the cells. After the culture supernatant was removed, each residue was rinsed once with physiological saline and the pigment was extracted with 0.001N hydrochloric acid/30% ethanol. The absorbance at 550 nm of each extract was measured with a microplate reader. The drug concentration required for the 50% inhibition of cell growth, which is referred to as IC50, was calculated by comparing the absorbance for untreated cells with those for cells treated with the drug in known concentrations.

[8] = test system: various bacteria; conditions: background, Japanese Published Unexamined Patent Application No. 112988/89; cited from earlier work
[9] = background, Japanese Published Unexamined Patent Application No. 112988/89; cited from earlier work

| Compound | MIC [1] [µg/mL] | MIC, EH [2] [µg/mL] | response vs control in vivo at 4 mg/kg ([3]; 4.0 mg/kg) [%] | MIC [4] [µg/mL] | MIC [5] [µg/mL] | MIC [6] [µg/mL] | IC50 [7] [µM] | response vs control in vivo at 8 mg/kg ([3]; 8.0 mg/kg) [%] | response vs control in vivo at 16 mg/kg ([3]; 16 mg/kg) [%] | antimicrobial activity [8] | antitumor activity [9] |
| --- | --- | --- | --- | --- | --- | --- | --- | --- | --- | --- | --- |
| COCCOCCOCC(=O)OC1/C=C(\C)CCC2(CC(=O)NC(C)c3nc(cs3)/C=C\C=C\C1=O)[S+]([O-])SC(=O)C2(C)O (stereo not shown) [Compound 2] | 1.8 (≈ 2.68 µM) | 0.23 (≈ 0.343 µM) | 30 | 0.13 (≈ 0.194 µM) | 0.13 (≈ 0.194 µM) | 0.23 (≈ 0.343 µM) | 0.025 | – | – | – | – |
| COCCOCCOCC(=O)OC1/C=C(\C)CCC2(C(C)(O)C(=O)SCc3oc(=O)oc3C)CC(=O)N(C(C)c3nc(cs3)/C=C\C=C\C1=O)[S+]2[O-] (stereo not shown) [Compound 12] | 4.2 (≈ 5.36 µM) | 42 (≈ 53.6 µM) | – | 42 (≈ 53.6 µM) | 42 (≈ 53.6 µM) | 42 (≈ 53.6 µM) | 0.03 | 39 | – | – | – |
| COCCOCCOCCOCCOCC(=O)OC1/C=C(\C)CCC2(C(C)(O)C(=O)SCc3oc(=O)oc3C)CC(=O)N(C(C)c3nc(cs3)/C=C\C=C\C1=O)[S+]2[O-] (stereo not shown) [Compound 14] | – | 2.6 (≈ 2.99 µM) | – | 5.2 (≈ 5.97 µM) | 2.6 (≈ 2.99 µM) | – | 0.035 | – | – | – | – |
| COCCOCCOCC(=O)OCCOCCOCCOCCOCC(=O)OC1/C=C(\C)CCC2(C(C)(O)C(=O)SCc3oc(=O)oc3C)CC(=O)N(C(C)c3nc(cs3)/C=C\C=C\C1=O)[S+]2[O-] (stereo not shown) [Compound 39] | – | 1.3 (≈ 1.28 µM) | – | 5.2 (≈ 5.11 µM) | 2.6 (≈ 2.56 µM) | 2.6 (≈ 2.56 µM) | – | – | 38 | – | – |
| C/C1=C\C(O)C(=O)/C=C/C=C\c2csc(n2)C(C)NC(=O)CC2(CC1)[S+]([O-])SC(=O)C2(C)O (stereo not shown) [DC107] | – | – | – | – | – | – | – | – | – | antimicrobial activity against various bacteria | antitumor activity |
